Consider three compounds from patent publication US12590080B2, “Compounds” (PACKINAX PTY LTD, priority 2020, dated 2026).

One data set relates to HepG2 (liver cancer). Put plainly: Cell proliferation, HepG2. In kind it is cell-based. The note with it: Homo sapiens. The source says: (§1) Pancreatic cancer cell lines MiaPaCa-2, PANC1 (human), TB33117 (mouse), and KPCWT833 were used to test the effect of Compound Ia on cell proliferation. PANC1 and TB33117 cell lines express high levels of PAK1 and PAK4, while MiaPaCa-2 cell has low levels of PAK1 and PAK4 (Yeo, 2014 and unpublished data). […] Compound Ia was also shown to inhibit colorectal cell line MC-38, brain glioblastoma cancer cell like U-87, melanoma cell line B16F1, liver cell line HepG2, and bile duct cancer cell line EIG-1 at low to sub-micromolar IC50 values.

The target of a further data set is T1, CHEK2 (Homo sapiens, UniProt O96017).
T1 construct: purchased Promega (Sydney, NSW, Australia)
Put plainly: ADP-Glo kinase assay, CHEK2. In kind it is biochemical. The protocol:
The effects of Compound Ia on CHEK2 kinase activity was assessed using an ADP-Glo kinase assay kit purchased from Promega (Sydney, NSW, Australia). The assay was undertaken in accordance with the manufacturer's instructions.
(In general: In ADP-Glo the light output rises with the ADP produced.)

In data set [1] the test system is alpha smooth muscle actin (α-SMA). Put plainly: Western blot of α-SMA expression in DLD-1 cells. The data set is classed as cell-based. The note with it: 24 h. The method, then:
(§2) Cells from a colorectal cancer cell line (DLD-1) were incubated with Compound Ia (0, 1, 10, 20, 50 μM), or with compound PF-3758309 (500 nM) for 24 h. At the end of 24 h culture, the medium was removed from the cells, and the cells were washed once with PBS. The cells were lysed in SDS-sample buffer. The resultant cell lysates were subjected to 10% SDS-PAGE to separate the proteins with different molecular weights, which then were blotted with antibodies against PD-L1, PAK1, PAK4, α-SMA and GAPDH.
Background: In western blotting, separated proteins are transferred to a membrane and probed.

Another data set concerns PAK4. Put plainly: Western blot of PAK4 expression in DLD-1 cells. Particulars: 24 h. The data set is classed as cell-based. The protocol: as §2
For a further data set, the system named is PD-L1. Put plainly: Western blot of PD-L1 expression in DLD-1 cells. In kind it is cell-based. Particulars: DLD-1 cells, 0, 1, 10, 20, 50 μM, 24 h. The method, then:
as §2

For a further data set, the system named is MC-38 (colon cancer). Put plainly: Cell proliferation, MC-38. The data set is classed as cell-based. The note with it: Mus musculus.
Text: as §1

In data set [2] the test system is PANC1 (pancreatic cancer). Put plainly: Cell proliferation, PANC1. In kind it is cell-based, human.
Text: as §1

The target of a further data set is PAK1 (Homo sapiens, UniProt Q13153). Put plainly: Cell-free kinase assay, PAK1. In kind it is biochemical.
Data set [3] relates to KPCWT833 (pancreatic cancer). As to the kind of experiment: Cell proliferation, KPCWT833. In kind it is cell-based.
Text: as §1

The next data set relates to KPC833 cells. Put plainly: In vivo efficacy in combination with Gemcitabine, subcutaneous KPC833 tumours in C57Bl6.
For data set [4], the system named is immunological biomarkers in tumour tissues. As to the kind of experiment: Immunological biomarkers in tumour tissues by flow cytometry, syngeneic mouse models of pancreatic cancer. The data set is classed as in vivo. Particulars: combination with Gemcitabine. The method, then: The effects of Compound Ia on immunological biomarkers was assessed using syngeneic mouse models of pancreatic cancer.
Single cell suspension was made from tumour tissues isolated from mice treated with either gemcitabine alone or gemcitabine plus PAK227. The cell suspension was incubated with antibodies against CD45, CD4, CD8, B220, PD-L1, PD-1, CD11b and Ly6c, and then subjected to a flow-cytometry machine for cell number counting and percentage calculation.
(In general: Flow cytometry measures light scatter and fluorescence of single cells or particles in a stream.)

The test system of data set [5] is MiaPaCa-2 (pancreatic cancer). As to the kind of experiment: Cell proliferation, MiaPaCa-2. In kind it is cell-based. The note with it: Homo sapiens, MIA PaCa-2.
Text: as §1

For a further data set, the system named is B16F10 (skin cancer). Put plainly: Cell proliferation, B16F10. The data set is classed as cell-based. Particulars: Mus musculus, B16-F10.
Data set [6] concerns TB33117 (pancreatic cancer). Put plainly: Cell proliferation, TB33117. The data set is classed as cell-based, mouse.
Text: as §1

The next data set has as its target PAK4 kinase (Homo sapiens, UniProt O96013). As to the kind of experiment: Cell-free kinase assay, PAK4. Particulars: read-out: IC50, inhibition of PAK4 kinase. In kind it is biochemical.
The subject of a further data set is U-87 (brain tumour). Put plainly: Cell proliferation, U-87. The data set is classed as cell-based. Particulars: Homo sapiens, U-87 MG.
Text: as §1

Data set [7] relates to EIG-1 (cholangiocarcinoma). As to the kind of experiment: Cell proliferation, EIG-1. The data set is classed as cell-based.
Text: as §1

Data set [8] in a line: Dissolution of the prodrug in ethanol/water. The data set is classed as physicochemical. Particulars: 67% ethanol in water solution.

One may read the IC50 as the concentration at which inhibition is half-maximal.

“Also recorded” adds a separate entry of the source. Where a name gives a salt, the structure may show the parent alone. Read-outs that look alike come from different tables or passages of the source.

Sequence of PAK1 (Q13153 whole entry): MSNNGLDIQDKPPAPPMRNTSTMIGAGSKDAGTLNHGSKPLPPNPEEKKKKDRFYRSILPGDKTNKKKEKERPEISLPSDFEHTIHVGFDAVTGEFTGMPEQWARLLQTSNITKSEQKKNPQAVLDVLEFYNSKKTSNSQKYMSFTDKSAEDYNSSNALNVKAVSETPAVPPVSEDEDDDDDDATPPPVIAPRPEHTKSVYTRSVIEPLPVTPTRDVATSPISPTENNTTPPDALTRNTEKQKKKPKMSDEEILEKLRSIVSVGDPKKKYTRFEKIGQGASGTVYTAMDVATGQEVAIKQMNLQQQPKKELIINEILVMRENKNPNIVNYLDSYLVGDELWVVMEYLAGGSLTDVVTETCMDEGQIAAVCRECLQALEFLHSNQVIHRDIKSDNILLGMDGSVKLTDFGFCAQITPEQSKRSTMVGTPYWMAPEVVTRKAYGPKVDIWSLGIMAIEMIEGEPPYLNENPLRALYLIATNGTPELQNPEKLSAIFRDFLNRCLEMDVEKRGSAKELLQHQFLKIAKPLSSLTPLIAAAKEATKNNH
T1 sequence (O96017 whole entry): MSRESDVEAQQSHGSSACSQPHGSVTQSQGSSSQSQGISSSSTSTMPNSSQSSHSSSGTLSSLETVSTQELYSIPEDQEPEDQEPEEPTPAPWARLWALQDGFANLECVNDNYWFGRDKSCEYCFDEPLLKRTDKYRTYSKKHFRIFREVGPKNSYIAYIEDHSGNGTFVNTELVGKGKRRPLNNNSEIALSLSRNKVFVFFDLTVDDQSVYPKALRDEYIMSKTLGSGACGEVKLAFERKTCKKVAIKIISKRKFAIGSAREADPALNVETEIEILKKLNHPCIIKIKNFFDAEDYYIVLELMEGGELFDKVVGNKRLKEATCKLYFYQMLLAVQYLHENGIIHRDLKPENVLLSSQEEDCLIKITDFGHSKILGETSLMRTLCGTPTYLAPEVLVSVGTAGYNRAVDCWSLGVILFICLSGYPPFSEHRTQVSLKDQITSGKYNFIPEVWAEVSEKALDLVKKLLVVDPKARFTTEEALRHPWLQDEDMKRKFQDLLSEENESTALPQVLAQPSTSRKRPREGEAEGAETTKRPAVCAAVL
Sequence of PAK4 kinase (O96013 whole entry): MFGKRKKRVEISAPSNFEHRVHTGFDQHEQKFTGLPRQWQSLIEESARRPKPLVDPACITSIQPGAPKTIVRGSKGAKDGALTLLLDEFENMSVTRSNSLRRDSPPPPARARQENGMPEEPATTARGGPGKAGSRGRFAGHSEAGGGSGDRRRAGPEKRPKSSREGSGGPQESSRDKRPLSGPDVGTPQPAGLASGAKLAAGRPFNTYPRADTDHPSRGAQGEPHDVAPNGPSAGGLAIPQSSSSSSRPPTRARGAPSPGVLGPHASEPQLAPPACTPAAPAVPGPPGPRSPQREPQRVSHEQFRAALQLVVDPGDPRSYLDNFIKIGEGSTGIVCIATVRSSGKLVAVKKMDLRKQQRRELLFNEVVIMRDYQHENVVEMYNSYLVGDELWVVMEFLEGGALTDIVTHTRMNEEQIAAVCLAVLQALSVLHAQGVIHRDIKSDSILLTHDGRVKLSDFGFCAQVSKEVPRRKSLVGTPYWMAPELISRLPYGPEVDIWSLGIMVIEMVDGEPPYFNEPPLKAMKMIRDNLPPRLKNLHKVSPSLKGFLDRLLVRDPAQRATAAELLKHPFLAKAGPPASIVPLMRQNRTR

In the case of `CNc1ncc(-c2ccc(Cc3c(Cl)cc(OC)cc3Cl)o2)cn1` [Compound Ia, 5-[5-[(2,6-dichloro-4-methoxyphenyl)methyl]furan-2-yl]-N-methylpyrimidin-2-amine], the concentration for half-maximal inhibition (IC50) is 3760 ± 660 nM with HepG2 (liver cancer); 737 nM against CHEK2; 460 ± 390 nM in the data set on MC-38 (colon cancer); 1110 nM in [2] (Homo sapiens, PANC-1, PANC1); 1000 to 2000 nM in data set [2] (PANC1); 1230 ± 390 nM in [3]. In addition, the concentration for half-maximal inhibition (IC50) is 8290 nM in [5]; 13300 nM with B16F10 (skin cancer); 1000 to 2000 nM in data set [6]; 1720 nM in [6] (Mus musculus); 200 to 500 nM at PAK4 kinase; 6550 ± 3550 nM with U-87 (brain tumour). Moreover, the 50% inhibitory concentration (IC50) in data set [7] is 4630 nM. For the same compound, the “expression of alpha smooth muscle actin (α-SMA)” value in data set [1] is given as “reduced expression”. In addition, the “expression of PAK4” value in the data set with PAK4 was “reduced expression”. For the same compound, the results for the “expression of PD-L1” value with PD-L1 and with PD-L1 (listed as Compound Ta) were “dose-dependently inhibited” and “reduced the expression of PD-L1 to a comparable level”, respectively. For the same compound, at PAK1, the “effect on the kinase activity of PAK1” value was “did not show significant effect”. For the same compound, the “toxicity (body weight)” value in the data set with KPC833 cells (combination with Gemcitabine) is on record as “no body weight loss was observed”. In the data set with KPC833 cells (combination with Gemcitabine, 21 days and 31 days, 40 mg/Kg subcutaneous every other day), the “tumour volume compared to untreated control tumours” value is given as “regression of pancreatic tumour growth”. Besides, the “efficacy against advanced tumours compared to Gemcitabine alone” value in the data set with KPC833 cells (combination with Gemcitabine, tumour size=100 mm^3) is recorded as “improved efficacy”. For the same compound, the “tumour volume over 21 days compared to gemcitabine alone” value in the data set on KPC833 cells (intra-tumour injection 10 mg/kg on day 1, followed by gemcitabine 50 mg/kg) is listed as “decreased tumour volume”. Further, in data set [4], the “expression of immunological biomarkers in tumour tissues compared to Gemcitabine alone” value is recorded as “increases the expression of immunological biomarkers; also recorded: increases various immunological biomarkers”.
Consider `COc1cc(Cl)c(Cc2ccc(-c3cnc(NC(=O)CN)nc3)o2)c(Cl)c1` [Compound Ic, 2-amino-N-(5-{5-[(2,6-dichloro-4-methoxyphenyl)methyl]furan-2-yl}pyrimidin-2-yl)acetamide hydrochloride], for which the solubility in ethanol/water entry in [8] is on record as “able to be dissolved”.
For the compound `Cc1nc(Nc2n[nH]c3c2CN(C(=O)N[C@H](CN(C)C)c2ccccc2)C3(C)C)c2sccc2n1` [PF3758309, reference compound], the IC50 in [2] (Homo sapiens, PANC-1, PANC1) stood at 500 nM; in data set [5] it was 87 nM; in data set [6] (Mus musculus), 805 nM.
